# Target: KRAS G12C (Homo sapiens (Human), UniProt P01116, C118A/G12C)
# Test: 2 h coupled exchange assay
# Type: biochemical
# Conditions: Avg 2 h Coupled exchange IC50, 2 h compound pre-incubation
# Description: The term “2 h coupled exchange assay” or “20 h coupled exchange assay” as used herein refers to the assay described in the Section entitled “BIOLOGICAL EVALUATION.”
# Sequence of KRAS G12C (P01116 other isoform, or with tags, fused parts or gaps G12C/C118A): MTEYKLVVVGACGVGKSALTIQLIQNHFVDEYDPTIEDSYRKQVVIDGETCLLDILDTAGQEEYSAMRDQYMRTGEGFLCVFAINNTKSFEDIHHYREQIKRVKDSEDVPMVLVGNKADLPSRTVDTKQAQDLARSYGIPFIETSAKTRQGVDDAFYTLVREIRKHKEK
row,IC50,Structure (SMILES)
1,0.886 µM,"C=CC(=O)N1CC2(CCN(c3nc4c(c(-c5cccc6cn[nH]c56)c3C#N)C[C@H]3C[C@@H]4C3(C)C)C2)C1 (single isomer, unassigned) [Example 14-28]"
2,3.04 µM,"C=CC(=O)N1CC2(CCN(c3nc4c(c(-c5cc(O)ccc5C)c3C)COC(C)(C)C4)C2)C1 (single isomer, unassigned) [Example 14-32, (P)-1-(6-(4-(5-hydroxy-2-methylphenyl)-3,7,7-trimethyl-7,8-dihydro-5H-pyrano[4,3-b]pyridin-2-yl)-2,6-diazaspiro[3.4]octan-2-yl)-2-propen-1-one]"
3,7.59 µM,"C=CC(=O)N1CC2(CCN(c3nc4c(c(-c5c(C)ccc6[nH]ncc56)c3C)COC(C)(C)C4)C2)C1 (single isomer, unassigned) [Example 14-34, (M)-1-(6-(3,7,7-trimethyl-4-(5-methyl-1H-indazol-4-yl)-7,8-dihydro-5H-pyrano[4,3-b]pyridin-2-yl)-2,6-diazaspiro[3.4]octan-2-yl)-2-propen-1-one]"
4,5.62 µM,"C=CC(=O)N1CC2(CCN(c3nc4c(c(-c5cc(O)cc6ccccc56)c3C)COC(C)(C)C4)C2)C1 (single isomer, unassigned) [Example 14-35, (P)-1-(6-(4-(3-hydroxy-1-naphthalenyl)-3,7,7-trimethyl-7,8-dihydro-5H-pyrano[4,3-b]pyridin-2-yl)-2,6-diazaspiro[3.4]octan-2-yl)-2-propen-1-one]"
5,1.77 µM,"C=CC(=O)N1CC2(CCN(c3nc4c(c(-c5ccc(F)c6sc(N)nc56)c3C)COC(C)(C)C4)C2)C1 (single isomer, unassigned) [Example 14-39, (M)-1-(6-(4-(2-amino-7-fluoro-1,3-benzothiazol-4-yl)-3,7,7-trimethyl-7,8-dihydro-5H-pyrano[4,3-b]pyridin-2-yl)-2,6-diazaspiro[3.4]octan-2-yl)-2-propen-1-one]"
6,7.81 µM,"C=CC(=O)N1CC2(CCN(c3nc4c(c(-c5c(C)c(C)cc6cnn(C)c56)c3C)COC(C)(C)C4)C2)C1 (single isomer, unassigned) [Example 14-42, (M)-1-(6-(3,7,7-trimethyl-4-(1,5,6-trimethyl-1H-indazol-7-yl)-7,8-dihydro-5H-pyrano[4,3-b]pyridin-2-yl)-2,6-diazaspiro[3.4]octan-2-yl)-2-propen-1-one]"
7,7.48 µM,"C=CC(=O)N1CC2(CCN(c3nc4c(c(-c5cccc6cc(O)ccc56)c3C)COC(C)(C)C4)C2)C1 (single isomer, unassigned) [Example 14-45, (M)-1-(6-(4-(6-hydroxy-1-naphthalenyl)-3,7,7-trimethyl-7,8-dihydro-5H-pyrano[4,3-b]pyridin-2-yl)-2,6-diazaspiro[3.4]octan-2-yl)-2-propen-1-one]"
8,1.02 µM,"C=CC(=O)N1CC2(CCN(c3nc4c(c(-c5c(C)ccc6cn[nH]c56)c3C#N)C[C@H]3C[C@@H]4C3(C)C)C2)C1 (single isomer, unassigned) [Example 14-52]"
9,0.357 µM,"C=CC(=O)N1CC2(CCN(c3nc4c(c(-c5ccc(F)c6sc(N)nc56)c3C#N)COC(C)(C)C4)C2)C1 (single isomer, unassigned) [Example 14-58, (M)-4-(2-amino-7-fluoro-1,3-benzothiazol-4-yl)-7,7-dimethyl-2-(2-(2-propenoyl)-2,6-diazaspiro[3.4]octan-6-yl)-7,8-dihydro-5H-pyrano[4,3-b]pyridine-3-carbonitrile]"
10,3.35 µM,"C=CC(=O)N1CC2(CCN(c3nc4c(c(-c5cc(O)ccc5C)c3F)C[C@H]3C[C@@H]4C3(C)C)C2)C1 (single isomer, unassigned) [Example 14-60]"

# Same assay, conditions: Avg 2 h Coupled exchange IC50, 2 h compound pre-incubation, SOS-mediated nucleotide exchange
row,Structure (SMILES),IC50
1,"C=CC(=O)N1CC2(CCN(c3nc4c(c(-c5c(C)c(C)cc6cnn(C)c56)c3C#N)COC(C)(C)C4)C2)C1 (single isomer, unassigned) [Example 13-91, (M)-7,7-dimethyl-2-(2-(2-propenoyl)-2,6-diazaspiro[3.4]octan-6-yl)-4-(1,5,6-trimethyl-1H-indazol-7-yl)-7,8-dihydro-5H-pyrano[4,3-b]pyridine-3-carbonitrile]",9.27 µM
2,"C=CC(=O)N1CC2(CCN(c3nc4c(c(-c5c(C)ccc6cnn(C)c56)c3C#N)CCC4(C)C)C2)C1 (single isomer, unassigned) [Example 13-102, (P)-2-(2-acryloyl-2,6-diazaspiro[3.4]octan-6-yl)-4-(1,6-dimethyl-1H-indazol-7-yl)-7,7-dimethyl-6,7-dihydro-5H-cyclopenta[b]pyridine-3-carbonitrile]",140 µM
3,"C=CC(=O)N1CC2(CCN(c3nc4c(c(-c5c(C)ccc6cnn(C)c56)c3C#N)CCC4(C)C)C2)C1 (single isomer, unassigned) [Example 13-103, (M)-2-(2-acryloyl-2,6-diazaspiro[3.4]octan-6-yl)-4-(1,6-dimethyl-1H-indazol-7-yl)-7,7-dimethyl-6,7-dihydro-5H-cyclopenta[b]pyridine-3-carbonitrile]",0.283 µM
4,"C=CC(=O)N1CC2(CCN(c3nc4c(c(-c5c(C)ccc6cnn(C)c56)c3C#N)C[C@H]3C[C@@H]4C3(C)C)C2)C1 (single isomer, unassigned) [Example 13-105]",14.7 µM
5,"C=CC(=O)N1CC2(CCN(c3nc4c(c(-c5c(C)ccc6[nH]ncc56)c3C#N)C[C@H]3C[C@@H]4C3(C)C)C2)C1 (single isomer, unassigned) [Example 13-114]",1.38 µM
6,"C=CC(=O)N1CC2(CCN(c3nc4c(c(-c5c(C)ccc6cnn(C)c56)c3C#N)C[C@H]3C[C@@H]4C3)C2)C1 (single isomer, unassigned) [Example 13-117]",15.8 µM
7,"C=CC(=O)N1CC2(CCN(c3nc4c(c(-c5c(C)ccc6cnn(C)c56)c3C#N)CO[C@@H](C3CC3)C4)C2)C1 (single isomer, unassigned) [Example 13-119]",6.7 µM
8,"C=CC(=O)N1CC2(CCN(c3nc4c(c(-c5c(C)ccc6cnn(C)c56)c3C#N)CO[C@H](C3CC3)C4)C2)C1 (single isomer, unassigned) [Example 13-120]",9.19 µM
9,"C=CC(=O)N1CC2(CCN(c3nc4c(c(-c5c(C)ccc6cnn(C)c56)c3C#N)CO[C@H](C3CC3)C4)C2)C1 (single isomer, unassigned) [Example 13-121]",0.849 µM
10,"C=CC(=O)N1CC2(CCN(c3nc4c(c(-c5cnccc5C)c3C#N)C[C@H]3C[C@@H]4C3(C)C)C2)C1 (single isomer, unassigned) [Example 13-123]",0.856 µM
11,"C=CC(=O)N1CC2(CCN(c3nc4c(c(-c5cnccc5C)c3C#N)C[C@H]3C[C@@H]4C3(C)C)C2)C1 (single isomer, unassigned) [Example 13-124]",45.5 µM
12,"C=CC(=O)N1CC2(CCN(c3nc4c(c(-c5cc(O)ccc5C)c3C#N)C[C@H]3C[C@@H]4C3)C2)C1 (single isomer, unassigned) [Example 13-125]",12.6 µM
13,"C=CC(=O)N1CC2(CCN(c3nc4c(c(-c5cc(O)ccc5C)c3C#N)COC(C)(C)C4)C2)C1 (single isomer, unassigned) [Example 13-127, 4-(5-hydroxy-2-methylphenyl)-7,7-dimethyl-2-(2-(2-propenoyl)-2,6-diazaspiro[3.4]octan-6-yl)-7,8-dihydro-5H-pyrano[4,3-b]pyridine-3-carbonitrile]",153 µM
14,"C=CC(=O)N1CC2(CCN(c3nc4c(c(-c5cc(O)cc6ccccc56)c3C#N)C[C@H]3C[C@@H]4C3(C)C)C2)C1 (single isomer, unassigned) [Example 13-130]",13.1 µM
15,"C=CC(=O)N1CC2(CCN(c3nc4c(c(-c5c(C)ccc6cnn(C)c56)c3C#N)[C@H]3C[C@@H](C4)C3)C2)C1 (single isomer, unassigned) [Example 13-132]",24.4 µM
16,"C=CC(=O)N1CC2(CCN(c3nc4c(c(-c5c(C)ccc6cnn(C)c56)c3C#N)CC[C@@H]3C[C@H]43)C2)C1 (single isomer, unassigned) [Example 13-134, (6a,7a)-4-(1,6-dimethyl-1H-indazol-7-yl)-2-(2-(2-propenoyl)-2,6-diazaspiro[3.4]octan-6-yl)-6,6a,7,7a-tetrahydro-5H-cyclopropa[h]quinoline-3-carbonitrile]",39.3 µM
17,"C=CC(=O)N1CC2(CCN(c3nc4c(c(-c5c(C)ccc6cnn(C)c56)c3C#N)CC[C@H]3C[C@@H]43)C2)C1 (single isomer, unassigned) [Example 13-135, (6a,7a)-4-(1,6-dimethyl-1H-indazol-7-yl)-2-(2-(2-propenoyl)-2,6-diazaspiro[3.4]octan-6-yl)-6,6a,7,7a-tetrahydro-5H-cyclopropa[h]quinoline-3-carbonitrile]",62.5 µM

# Continued, values first:
row,IC50,Structure (SMILES)
1,0.129 µM,"C=CC(=O)N1CC2(CCN(c3nc4c(c(-c5c(C)ccc6[nH]ncc56)c3C#N)[C@H]3CC[C@@H]4C3)C2)C1 (single isomer, unassigned) [Example 14-5]"
2,1.42 µM,"C=CC(=O)N1CC2(CCN(c3nc4c(c(-c5c(C)ccc6[nH]ncc56)c3C#N)[C@@H]3CC[C@H]4C3)C2)C1 (single isomer, unassigned) [Example 14-6]"
3,2.57 µM,"C=CC(=O)N1CC2(CCN(c3nc4c(c(-c5c(C)ccc6[nH]ncc56)c3C#N)[C@H]3CC[C@@H]4C3)C2)C1 (single isomer, unassigned) [Example 14-8]"
4,1.14 µM,"C=CC(=O)N1CC2(CCN(c3nc4c(c(-c5cc(O)ccc5C)c3C#N)[C@@H]3CC[C@H]4C3)C2)C1 (single isomer, unassigned) [Example 14-10]"
5,0.422 µM,"C=CC(=O)N1CC2(CCN(c3nc4c(c(-c5cc(O)ccc5C)c3C#N)[C@H]3CC[C@@H]4C3)C2)C1 (single isomer, unassigned) [Example 14-12]"
6,2.84 µM,"C=CC(=O)N1CC2(CCN(c3nc4c(c(-c5cc(O)ccc5C)c3C#N)[C@H]3CC[C@@H]4C3)C2)C1 (single isomer, unassigned) [Example 14-13]"
7,0.108 µM,"C=CC(=O)N1CC2(CCN(c3nc4c(c(-c5cc(O)ccc5C)c3C#N)[C@H]3CC[C@@H]4C3)C2)C1 (single isomer, unassigned) [Example 14-14]"
8,250 µM,"C=CC(=O)N1CC2(CCN(c3nc4c(c(-c5c(C)ccc6cnn(C)c56)c3C#N)[C@@H]3CC[C@H]4C3)C2)C1 (single isomer, unassigned) [Example 14-16]"

# — patent publication US20240059703A1 (AMGEN INC., priority 2021, published 2024)
